How the values were obtained:
kochia = experiment: Test D preemergence; assay type: in vivo, Kochia scoparia; details: scale 0 to 100
In short: (§1)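 Scores of 0 (no effect) to 100 (complete control) come from visual comparison with untreated plants 14–21 days after spraying. Applications were made pre-emergence to silt loam or post-emergence to plants 2–18 cm tall.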

buckwheat, wild = experiment: Test D preemergence; assay type: in vivo, Polygonum convolvulus; details: scale 0 to 100
In short: as §1

windgrass [1] = experiment: Test D preemergence; assay type: in vivo, Apera spica-venti; details: scale 0 to 100
In short: as §1

bluegrass = experiment: Test D postemergence; assay type: in vivo, Poa annua; details: scale 0 to 100
In short: as §1

blackgrass = experiment: Test D postemergence; assay type: in vivo, Alopecurus myosuroides; details: scale 0 to 100
In short: as §1

bromegrass, downy = experiment: Test D postemergence; assay type: in vivo, Bromus tectorum; details: scale 0 to 100
In short: as §1

field violet = experiment: Test D postemergence; assay type: in vivo, Viola arvensis; details: scale 0 to 100
In short: as §1

deadnettle = experiment: Test D postemergence; assay type: in vivo, Lamium amplexicaule; details: scale 0 to 100
In short: as §1

chamomile = experiment: Test D postemergence; assay type: in vivo, Matricaria inodora; details: scale 0 to 100
In short: as §1

windgrass [2] = experiment: Test D postemergence; assay type: in vivo, Apera spica-venti; details: scale 0 to 100
In short: as §1

velvetleaf = experiment: Test F preemergence; assay type: in vivo, Abutilon theophrasti
In short: (§2)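 Seeds were sown in silt loam and sprayed preemergence with compound in a non-phytotoxic solvent mixture containing surfactant. Postemergence sprays went onto plants 2 to 18 cm tall (1- to 4-leaf stage). After 14 to 21 days in a greenhouse, injury was rated visually against untreated controls, 0 (no effect) to 100 (complete control).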

common ragweed = experiment: Test F preemergence; assay type: in vivo, Ambrosia elation
In short: as §2

arrowleaf sida = experiment: Test F preemergence; assay type: in vivo, Sida rhombifolia
In short: as §2

yellow nutsedge = experiment: Test F preemergence; assay type: in vivo, Cyperus esculentus
In short: as §2

[3] = Preemergence, 31 g ai/ha, scale 0 to 100
[4] = Preemergence, 62 g ai/ha, scale 0 to 100
[5] = Preemergence, 125 g ai/ha, scale 0 to 100
[6] = preemergence, 8 g ai/ha, scale 0 to 100, 100 is complete control
[7] = preemergence, 16 g ai/ha, scale 0 to 100, 100 is complete control
[8] = Preemergence, 16 g ai/ha, scale 0 to 100

CCCc1cc(C(=O)NCC(F)(F)F)nn1Cc1ccnc(C(F)(F)F)c1 [Compound 105]
25: Chamomile plant response rating (chamomile; Postemergence, 31 g ai/ha) | Windgrass plant response rating (windgrass [2]; postemergence, 62 g ai/ha) | Plant response rating, Yellow Nutsedge (yellow nutsedge; [3]) | Plant response rating, Yellow Nutsedge (yellow nutsedge; [4])
75: Plant response rating, Windgrass (windgrass [1]; 31 g ai/ha) | Field Violet plant response rating (field violet; postemergence, 62 g ai/ha)
65: Blackgrass plant response rating (blackgrass; Postemergence, 125 g ai/ha) | Chamomile plant response rating (chamomile; Postemergence, 125 g ai/ha) | Plant response rating, Yellow Nutsedge (yellow nutsedge; [5])
0: Plant response rating, Velvetleaf (velvetleaf; [3]) | Plant response rating, Velvetleaf (velvetleaf; [6]) | Plant response rating, Velvetleaf (velvetleaf; [7]) | Plant response rating, Common Ragweed (common ragweed; [6]) | Plant response rating, Common Ragweed (common ragweed; [7]) | Plant response rating, Arrowleaf Sida (arrowleaf sida; [3]) | Plant response rating, Arrowleaf Sida (arrowleaf sida; [4]) | Plant response rating, Arrowleaf Sida (arrowleaf sida; [6]) | Plant response rating, Arrowleaf Sida (arrowleaf sida; [7]) | Plant response rating, Yellow Nutsedge (yellow nutsedge; [6]) | Plant response rating, Yellow Nutsedge (yellow nutsedge; [7])
70: Bluegrass plant response rating (bluegrass; Postemergence, 250 g ai/ha) | Blackgrass plant response rating (blackgrass; Postemergence, 250 g ai/ha) | Windgrass plant response rating (windgrass [2]; Postemergence, 250 g ai/ha)
85: Plant response rating, Buckwheat, Wild (buckwheat, wild; 31 g ai/ha)
60: Deadnettle plant response rating (deadnettle; Postemergence, 250 g ai/ha)
95: Plant response rating, Kochia (kochia; 31 g ai/ha) | Plant response rating, Buckwheat, Wild (buckwheat, wild; 125 g ai/ha)
15: Bluegrass plant response rating (bluegrass; Postemergence, 31 g ai/ha) | Bluegrass plant response rating (bluegrass; postemergence, 62 g ai/ha) | Blackgrass plant response rating (blackgrass; postemergence, 62 g ai/ha) | Bromegrass, Downy plant response rating (bromegrass, downy; postemergence, 62 g ai/ha) | Deadnettle plant response rating (deadnettle; Postemergence, 31 g ai/ha) | Windgrass plant response rating (windgrass [2]; Postemergence, 31 g ai/ha) | Plant response rating, Arrowleaf Sida (arrowleaf sida; [5])
90: Plant response rating, Buckwheat, Wild (buckwheat, wild; 62 g ai/ha) | Field Violet plant response rating (field violet; Postemergence, 125 g ai/ha)
30: Bromegrass, Downy plant response rating (bromegrass, downy; Postemergence, 250 g ai/ha)
100: Plant response rating, Kochia (kochia; 62 g ai/ha) | Plant response rating, Kochia (kochia; 125 g ai/ha) | Plant response rating, Kochia (kochia; 250 g ai/ha) | Plant response rating, Buckwheat, Wild (buckwheat, wild; 250 g ai/ha) | Plant response rating, Windgrass (windgrass [1]; 62 g ai/ha) | Plant response rating, Windgrass (windgrass [1]; 125 g ai/ha) | Plant response rating, Windgrass (windgrass [1]; 250 g ai/ha) | Field Violet plant response rating (field violet; Postemergence, 250 g ai/ha) | Plant response rating, Common Ragweed (common ragweed; [5])
50: Chamomile plant response rating (chamomile; postemergence, 62 g ai/ha)
80: Chamomile plant response rating (chamomile; Postemergence, 250 g ai/ha)
40: Bluegrass plant response rating (bluegrass; Postemergence, 125 g ai/ha) | Field Violet plant response rating (field violet; Postemergence, 31 g ai/ha) | Windgrass plant response rating (windgrass [2]; Postemergence, 125 g ai/ha) | Plant response rating, Velvetleaf (velvetleaf; [5])
10: Blackgrass plant response rating (blackgrass; Postemergence, 31 g ai/ha) | Bromegrass, Downy plant response rating (bromegrass, downy; Postemergence, 31 g ai/ha)
55: Deadnettle plant response rating (deadnettle; Postemergence, 125 g ai/ha)
20: Bromegrass, Downy plant response rating (bromegrass, downy; Postemergence, 125 g ai/ha) | Deadnettle plant response rating (deadnettle; postemergence, 62 g ai/ha) | Plant response rating, Velvetleaf (velvetleaf; [4])
35: Plant response rating, Common Ragweed (common ragweed; [4])

CCOc1cc(C(=O)NC(C)C)nn1Cc1ccnc(C(F)(F)F)c1 [Compound 188]
20: Bluegrass plant response rating (bluegrass; Postemergence, 31 g ai/ha) | Bluegrass plant response rating (bluegrass; postemergence, 62 g ai/ha) | Bromegrass, Downy plant response rating (bromegrass, downy; Postemergence, 250 g ai/ha) | Windgrass plant response rating (windgrass [2]; Postemergence, 31 g ai/ha) | Windgrass plant response rating (windgrass [2]; postemergence, 62 g ai/ha) | Plant response rating, Velvetleaf (velvetleaf; preemergence, scale 0 to 100, 100 is complete control) | Plant response rating, Arrowleaf Sida (arrowleaf sida; [5])
30: Bluegrass plant response rating (bluegrass; Postemergence, 125 g ai/ha) | Plant response rating, Common Ragweed (common ragweed; [8])
70: Chamomile plant response rating (chamomile; Postemergence, 125 g ai/ha) | Plant response rating, Yellow Nutsedge (yellow nutsedge; [5])
45: Blackgrass plant response rating (blackgrass; Postemergence, 250 g ai/ha) | Deadnettle plant response rating (deadnettle; Postemergence, 125 g ai/ha) | Windgrass plant response rating (windgrass [2]; Postemergence, 250 g ai/ha)
90: Plant response rating, Common Ragweed (common ragweed; [4]) | Plant response rating, Common Ragweed (common ragweed; [5])
0: Plant response rating, Velvetleaf (velvetleaf; [6]) | Plant response rating, Common Ragweed (common ragweed; [6]) | Plant response rating, Arrowleaf Sida (arrowleaf sida; [8]) | Plant response rating, Arrowleaf Sida (arrowleaf sida; [6]) | Plant response rating, Yellow Nutsedge (yellow nutsedge; [6])
10: Plant response rating, Arrowleaf Sida (arrowleaf sida; [4])
100: Plant response rating, Kochia (kochia; 62 g ai/ha) | Plant response rating, Kochia (kochia; 125 g ai/ha) | Plant response rating, Kochia (kochia; 250 g ai/ha) | Plant response rating, Buckwheat, Wild (buckwheat, wild; 31 g ai/ha) | Plant response rating, Buckwheat, Wild (buckwheat, wild; 62 g ai/ha) | Plant response rating, Buckwheat, Wild (buckwheat, wild; 125 g ai/ha) | Plant response rating, Buckwheat, Wild (buckwheat, wild; 250 g ai/ha) | Plant response rating, Windgrass (windgrass [1]; 62 g ai/ha) | Plant response rating, Windgrass (windgrass [1]; 125 g ai/ha) | Plant response rating, Windgrass (windgrass [1]; 250 g ai/ha) | Field Violet plant response rating (field violet; Postemergence, 125 g ai/ha) | Field Violet plant response rating (field violet; Postemergence, 250 g ai/ha) | Plant response rating, Velvetleaf (velvetleaf; [4]) | Plant response rating, Velvetleaf (velvetleaf; [5])
55: Deadnettle plant response rating (deadnettle; Postemergence, 250 g ai/ha)
35: Bluegrass plant response rating (bluegrass; Postemergence, 250 g ai/ha) | Blackgrass plant response rating (blackgrass; Postemergence, 125 g ai/ha) | Deadnettle plant response rating (deadnettle; Postemergence, 31 g ai/ha) | Deadnettle plant response rating (deadnettle; postemergence, 62 g ai/ha) | Windgrass plant response rating (windgrass [2]; Postemergence, 125 g ai/ha)
65: Chamomile plant response rating (chamomile; Postemergence, 31 g ai/ha) | Chamomile plant response rating (chamomile; postemergence, 62 g ai/ha)
85: Field Violet plant response rating (field violet; Postemergence, 31 g ai/ha) | Field Violet plant response rating (field violet; postemergence, 62 g ai/ha)
75: Chamomile plant response rating (chamomile; Postemergence, 250 g ai/ha)
15: Blackgrass plant response rating (blackgrass; Postemergence, 31 g ai/ha) | Blackgrass plant response rating (blackgrass; postemergence, 62 g ai/ha) | Bromegrass, Downy plant response rating (bromegrass, downy; Postemergence, 31 g ai/ha) | Bromegrass, Downy plant response rating (bromegrass, downy; Postemergence, 125 g ai/ha) | Bromegrass, Downy plant response rating (bromegrass, downy; postemergence, 62 g ai/ha) | Plant response rating, Yellow Nutsedge (yellow nutsedge; [4])
